From patent US11293870B2, “Vital stain” (Mie University, priority 2013, dated 2022)
“Also recorded” adds a separate entry of the source. Read-outs that look alike come from different tables or passages of the source.

Key:
[1] = cited from earlier work
[2] = tested on: MDCK-GFP-Ras^V12 cells mixed with MDCK normal cells; assay: In vitro assay of MDCK-Ras^V12 cancerized cell small aggregates as a very early cancer model; assay type: cell-based, canine; details: for Staining of GFP-Ras^V12 positive cancerized cells versus MDCK normal cells: Ministry of Health, Labour and Welfare-approved food additives, 1 mg/ml, excitation 750, 800, 850, 900 nm, red fluorescence
Description: The MDCK normal cells were cultured in a 10 cm dish, and the MDCK-GFP-Ras^V12 cells were cultured in a 6 cm dish. The culture solution used for the MDCK normal cells was DMEM (containing Phenol Red)+10% FBS+penicillin/streptomycin.
The solution used for the MDCK-GFP-Ras^V12 cells was DMEM (containing Phenol Red)+10% FBS+penicillin/streptomycin+Zeocin (400 μg/ml)+blasticidin (5 μg/ml). […] The seeding was carried out using a DMEM+10% FBS+penicillin/streptomycin culture solution, to 1.0 to 3.0×10^4 cells per well of the 96-well dish. Tetracycline at a concentration of 2 μg/ml was added to the culture solution after 4 days when seeding was to 1.0×10^4 or after 1 day when seeding was to 3.0×10^4, and GFP-Ras^V12 was expressed, forming cancerized cell small aggregates among the MDCK normal cells (NPL 3). After 18 to 36 hours, the cells in each of the wells were rinsed 3 times with 200 μl of PBS, and then the Prestwick Chemical Library compounds and the Ministry of Health, Labour and Welfare-approved food additives, each diluted to 1 μM with a 100 μl volume of PBS, were added to the respective wells and taken up by the cells for 5 minutes at room temperature. They were then rinsed 3 times with 200 μl of PBS, and in certain cases further rinsed once with 100 μl of DMEM without Phenol Red, and observed under a multiphoton laser microscope.

[3] = tested on: epithelial cells/adenocytes and connective tissue/capillaries; assay: Preferential staining of epithelial cells/adenocytes or connective tissue/capillaries; assay type: in vivo, mouse; details: 5 mg/ml for curcumin, 1 mg/ml for all other dyes
Description: A metal ring (outer diameter: 16 millimeters, inner diameter, 6 millimeters) was placed on a laboratory stage, and a rapid bonding adhesive (AronAlpha) was coated over the entire periphery of the ring surface on one side. Forceps were used to hold the rapid bonding adhesive-coated metal ring with the adhesive-coated surface facing downward, and it was set on the pronase-treated mucosal surface. During a period of about 5 minutes, the metal ring became anchored to the mucosa with the rapid bonding adhesive, and the region where the dye compound was to be applied was rinsed with PBS.
In order to avoid drying of the mucosal surface, a curcumin stock solution or sulfuretin stock solution diluted with physiological saline (PBS) (see Tables 1 to 3 for the dilution factors) was added dropwise onto the pronase-treated mucosal surface, and after allowing it to stand for 1 minute, it was rinsed 3 times with PBS, a cover glass was placed over the metal ring, and the objective lens of a multiphoton laser microscope (FV1000 MPE by Olympus Corp.) was brought near to the top of the cover glass for image observation.
The procedure from administration of the dye compound to observation was conducted as described above under “Evaluation of stainability” (same hereunder). Also, the administered concentration of dye to the mucosal surface was 5 mg/ml for curcumin as Dye No. 1, and 1 mg/ml for all of the other dyes.

[4] = cited from earlier work; remark: listed apart in the source
[5] = tested on: cancer lesion site versus normal mucosa of large intestine; assay: Comparison of staining patterns in normal site and cancer tumor site of large intestine; assay type: in vivo, mouse; details: for Staining of cancer lesion sites compared with normal mucosa: Example 1, regardless of pronase treatment of the mucosal surface; for Staining of cancer lesion site compared with normal mucosa: Example 3
Description: Drinking water containing 2% (w/v) dextran sodium sulfate (DSS) was given to 8-week-old C57B6 mice (male, approximately 20 g) for 7 days. After intraperitoneal injection of 0.2 ml of 5% chloral hydrate for anesthesia, the mouse abdominal wall was incised vertically to about 1 cm, and the gastrointestinal tract was raised over the abdominal wall to about 1 cm. Blood flow to the gastrointestinal tract was maintained during this time by the blood vessel flowing into the mesenteric attachment site. The gastrointestinal tract was incised vertically to about 1 cm on the opposite side of the mesenteric attachment site, including the tunica muscularis and mucosa. The opposite side of the mesenteric attachment site was incised in order to prevent severance and damage of the blood vessel and minimize bleeding. When the incision site of the gastrointestinal tract was opened vertically, the mucosal surface of the gastrointestinal tract, as the food channel, became visible. When food digestion products were present they were wiped off with tissue paper. In order to more clearly observe the gastrointestinal tract mucosal surface, a 1% pronase solution was dropped onto the mucosal surface and was allowed to stand still for 15 minutes. This pronase treatment removed the mucus from the mucosal surface, rendering the cell structure more easily visible. Next, the pronase was removed from the mucosal surface and rinsed with physiological saline (PBS). A metal ring (outer diameter: 16 millimeters, inner diameter, 6 millimeters) was placed on a laboratory stage, and a rapid bonding adhesive (AronAlpha) was coated over the entire periphery of the surface on one side. Forceps were used to hold the rapid bonding adhesive-coated metal ring with the adhesive-coated surface facing downward, and it was set on the pronase-treated mucosal surface. During a period of about 5 minutes, the metal ring became anchored to the mucosa with the rapid bonding adhesive, and the region where the dye compound was to be applied was rinsed with PBS. […] FIG. 32 is a drawing for illustration of a stainability evaluation step for the aforementioned dye compounds. […] Z stack image). […] Both of the staining photographs of the normal site and cancer tumor site were taken under the same conditions.

[6] = tested on: Pluripotent hepatocytes; assay: Undifferentiated cell staining of pluripotent hepatocytes; assay type: cell-based
Excerpt: Pluripotent stem cells such as iPS cells, ES cells or tissue-derived stem cells are considered promising for application and development in regenerative medicine, and for example, when a cell population is to be formed from iPS cells, differentiated into tissue cells that are destined to be transplanted, it is currently the case that iPS cell-derived differentiation-induced tissue cell populations partially contain undifferentiated cells that have not completely differentiated to the desired tissue cells, cells that have differentiated to cells other than the desired tissue cells, and the original iPS cells that have undergone essentially no differentiation. It has been pointed out that when such undifferentiated cells or original iPS cells are transplanted as is into the body, they can potentially become cancerated in the future. Thus, when an iPS cell-derived differentiation-induced tissue cell population is to be used for transplantation, undifferentiated cells or original iPS cells remaining in the transplanted cell population are preferably identified and confirmed, and also eliminated.

[7] = tested on: Large intestine; assay: Evaluation of dye compound stainability under multiphoton laser microscope, large intestine mucosal surface; assay type: in vivo; details: mucosal surface of mouse large intestine; 5 mg/ml for curcumin, 1 mg/ml for other dyes
Description: Drinking water containing 2% (w/v) dextran sodium sulfate (DSS) was given to 8-week-old C57B6 mice (male, approximately 20 g) for 7 days. After intraperitoneal injection of 0.2 ml of 5% chloral hydrate for anesthesia, the mouse abdominal wall was incised vertically to about 1 cm, and the gastrointestinal tract was raised over the abdominal wall to about 1 cm. Blood flow to the gastrointestinal tract was maintained during this time by the blood vessel flowing into the mesenteric attachment site. The gastrointestinal tract was incised vertically to about 1 cm on opposite side of the mesenteric attachment site, including the tunica muscularis and mucosa. The opposite side of the mesenteric attachment site was incised in order to prevent severance and damage of the blood vessel and minimize bleeding. When the incision site of the gastrointestinal tract was opened vertically, the mucosal surface of the gastrointestinal tract, as the food channel, became visible. When food digestion products were present they were wiped off with tissue paper.
In order to more clearly observe the gastrointestinal tract mucosal surface, a 1% pronase solution was dropped onto the mucosal surface and was allowed to stand still for 15 minutes. This pronase treatment removed the mucus from the mucosal surface, rendering the cell structure more easily visible. […]

[8] = tested on: mucosal surfaces; assay: Photon dose necessary to obtain fluorescent images of dye-coated mucosal surfaces; assay type: in vivo, mouse; details: mucosal surfaces coated with dye
[9] = tested on: mouse bladder epithelial cells; assay: Multiphoton laser microscope imaging of stained bladder epithelial cells; details: laser power of 3%
[10] = tested on: mouse tracheal epithelial cells; assay: Multiphoton laser microscope imaging of stained tracheal epithelial cells; details: laser power of 3%
[11] = tested on: human gastric mucosa (normal site and stomach cancer site); assay: Staining of surgically excised fresh human gastric mucosa; details: laser power of 1%
Excerpt: Similar staining also occurred with surgically excised fresh human gastric mucosa. […] The centers of the circular structures are the exits of the fundic glands. It was thus possible to confirm the characteristic of normal tissue whereby epithelial cells arrange in a circular manner without disparate sizes. […] The blackened elliptical portions in each cell are the nuclei.

[12] = without pronase treatment, cancer 2 to 4 millimeters in diameter

Oc1cc(O)c2cc(O)c(-c3ccc(O)c(O)c3)[o+]c2c1 [Cyanidin]
LD50 ([1]; rat, in vivo): 1500 mg/kg

Oc1cc(O)c2cc(O)c(-c3cc(O)c(O)c(O)c3)[o+]c2c1 [Delphinidin]
LD50 ([1]; rat, in vivo): 1250 mg/kg

CCN(Cc1cccc(S(=O)(=O)[O-])c1)c1ccc(C(=C2C=CC(=[N+](CC)Cc3cccc(S(=O)(=O)[O-])c3)C=C2)c2ccc(O)cc2S(=O)(=O)[O-])cc1.[Na+].[Na+] [Green #3, Fast Green FCF]
LD50 ([1]; Rat, Oral): >2000 mg/kg
Staining of GFP-Ras^V12 positive cancerized cells versus MDCK normal cells [2]: labeled GFP-Ras^V12-positive cancerized cell small aggregates more intensely than normal cells; also recorded: specific staining of cancer cells
Cell group preferentially stained (epithelial cells/adenocytes or connective tissue/capillaries) [3]: some adenocytes and connective tissue/capillaries were strongly stained

O=C1OC2(c3ccccc31)c1cc(I)c(O)c(I)c1Oc1c2cc(I)c(O)c1I [Red #3, erythrosine]
LD50 ([4]; mouse, in vivo, po): 6800 mg/kg
Staining of cancer lesion sites compared with normal mucosa [5]: stained cancer lesion sites much more intensely than normal mucosa
Staining of GFP-Ras^V12 positive cancerized cells versus MDCK normal cells [2]: GFP-Ras^V12 positive cells were preferentially stained
Staining of GFP-Ras^V12 positive cancerized cells versus MDCK normal cells ([2]; listed as erythrosine): labeled GFP-Ras^V12-positive cancerized cell small aggregates more intensely than normal cells
Cell group preferentially stained (epithelial cells/adenocytes or connective tissue/capillaries) [3]: preferentially stained epithelial cells/adenocytes

O=C([O-])c1c(Cl)c(Cl)c(Cl)c(Cl)c1-c1c2cc(Br)c(=O)c(Br)c-2oc2c(Br)c([O-])c(Br)cc12.[Na+].[Na+] [Red #104, phloxine]
LD50 ([4]; Mouse, Intra-abdominal): 310 mg/kg
Cancer cell staining intensity relative to normal cell staining intensity ([2]; FIG. 19): 6.7 times
Staining of GFP-Ras^V12 positive cancerized cells versus MDCK normal cells [2]: labeled GFP-Ras^V12-positive cancerized cell small aggregates more intensely than normal cells; also recorded: All GFP-Ras^V12 positive cells stained with Red #104
Cell group preferentially stained (epithelial cells/adenocytes or connective tissue/capillaries) [3]: preferentially stained epithelial cells/adenocytes
Staining of pluripotent hepatocytes [6]: exhibit undifferentiated cell staining

O=C1/C(=C/c2ccc(O)c(O)c2)Oc2cc(O)ccc21 [Sulfuretin]
LD50 ([4]; mouse, in vivo, po): 300 mg/kg
Excitation by multiphoton laser and brightness of image [7]: strongly excited by a multiphoton laser and provided bright images
Staining of cancer lesion sites compared with normal mucosa [5]: stained cancer lesion sites much more intensely than normal mucosa
Staining of cancer lesion site compared with normal mucosa [5, 12]: stained the cancer lesion site significantly more intensely than the normal mucosa
Photon dose necessary to obtain fluorescent images compared to non-staining [8]: 4%
Cell group preferentially stained (epithelial cells/adenocytes or connective tissue/capillaries) [3]: intensely stained epithelial cells/adenocytes and faintly stained connective tissue/capillaries

COc1cc(/C=C/C(=O)CC(=O)/C=C/c2ccc(O)c(OC)c2)ccc1O [curcumin]
Excitation by multiphoton laser and brightness of image [7]: strongly excited by a multiphoton laser and provided bright images
Staining of cancer lesion sites compared with normal mucosa [5]: stained cancer lesion sites much more intensely than normal mucosa
Staining of cancer lesion site compared with normal mucosa ([5]; after 15 minutes treatment with 1% pronase MS): stained the cancer lesion site significantly more intensely than the normal mucosa
Staining of cancer lesion site compared with normal mucosa [5, 12]: stained the cancer lesion site significantly more intensely than the normal mucosa
Photon dose necessary to obtain fluorescent images compared to non-staining [8]: 3%
Image quality of stained cells [9]: an image with sufficient brightness and contrast for diagnosis was obtained
Image quality of stained cells [10]: an image with sufficient brightness and contrast for diagnosis was obtained
Cell group preferentially stained (epithelial cells/adenocytes or connective tissue/capillaries) [3]: intensely stained epithelial cells/adenocytes and faintly stained connective tissue/capillaries
Staining of normal gastric mucosa site [11]: the circularly arranged normal epithelial cells are stained
Staining of stomach cancer site [11]: cancer cells are stained

CC1=C(/C=C/C(C)=C/C=C/C(C)=C/C=C/C=C(C)/C=C/C=C(C)/C=C/C2=C(C)CCCC2(C)C)C(C)(C)CCC1 [β-Carotene]
LD50 ([1]; Rat, Oral): 5000 mg/kg
Cell group preferentially stained (epithelial cells/adenocytes or connective tissue/capillaries) [3]: preferentially stained epithelial cells/adenocytes
